Structures are written as SMILES.

This is an account of results in patent US20240002952A1, “METHOD FOR IN VITRO DIAGNOSIS OF MUCOSITIS IN CANCER PATIENTS UNDERGOING ANTITUMOR THERAPY” (ISTITUTI FISIOTERAPICI OSPITALIERI, priority 2020, published 2024).

The subject of data set [1] is Primary epidermal keratinocytes (HEKa).
The subject of data set [2] is Primary gingival keratinocytes.

Turning to `O=c1[nH]cc(F)c(=O)[nH]1` [5-FLUOROURACILE, 5-fluorouracile], the “CC50 Value Primary epidermal keratinocytes (HEKa)” value in data set [1] is listed as “Not calculable”. For the same compound, the “CC50 Value Primary gingival keratinocytes” value in data set [2] was “Not calculable”.
As for `Nc1ncn([C@@H]2O[C@H](CO)[C@@H](O)[C@H]2O)c(=O)n1` [AZACYTIDINE, azacytidine], the CC50 in data set [1] stood at 51.2 µM; in data set [2] it was 1.8 µM.
Turning to `CCCCCOC(=O)Nc1nc(=O)n([C@@H]2O[C@H](C)[C@@H](O)[C@H]2O)cc1F` [CAPECITABIN, capecitabin], in data set [1], the “CC50 Value Primary epidermal keratinocytes (HEKa)” value is listed as “Not calculable”. In data set [2], this compound came in with a CC50 of 103 µM.
With `O=C1[O][Pt]2([NH][C@@H]3CCCC[C@H]3[NH]2)[O]C1=O` [OXALIPLATIN, oxaliplatin], the figures for the CC50 in data set [1] and in data set [2] were 32.3 µM and 46 µM, respectively.
